According to patent US11311522B1 (Cavion, Inc., priority 2018, dated 2022):
pIC50: −log10 of the molar value. Where two headings read alike, the source gives them in different places.

Key:
[1] = Phase 1 single-dose pharmacokinetics (PN001, PN002/Part I, PN003, PN005); type: in vivo, human; conditions: 8 mg CX-8998
[2] = Simulated Css and total active moiety, 10 mg BID; parameters: species or system human; conditions: for Css, estimated mean / Steady-state AUC24, estimated mean: CX-8998 10 mg twice daily fasted; for Cu, ss_adj: adjusted for fu and potency, 10 mg BID; for Cp, ss / Cu, ss: simulated from CX-8998 10 mg BID
WAG/Rij rats = assay: WAG/Rij rat model of absence epilepsy; type: in vivo; conditions: 10 mg/kg oral
Description: Other T-type antagonists from structurally diverse series have shown similar efficacy in this model (Broicher, 2007; Blumenfeld, 2008; Broicher, 2008; Shipe, 2008; Yang, 2008; Uebele, 2009; Russo, 2010; Russo, 2011).
Data were scored with automated seizure analysis software, averaged, and normalized to enable treatment comparisons (FIG. 76)
Control animals received vehicle administrations. […] Source: Merck TTA Package Description (FIG. 79).

Pharmacokinetics in dogs = type: in vivo, dog; conditions: for AUC: male, dog, plasma, po, 0.5 mg/kg, read-out: AUC24
Description: (§2) The validity and reproducibility of the assays were determined, and the precision and accuracy for calibration standards and quality control samples were examined. […] The analytes were stable in plasma under the storage and assay conditions. […] Assay performances were satisfactory and met acceptance criteria for system performance suitability, quantitation range, calibration linearity, assay accuracy and precision, and assay recovery.

[3] = Pharmacokinetics in rhesus monkeys; type: in vivo, rhesus monkey; conditions: for AUC: male, rhesus monkey, plasma, po, 2 mg/kg, read-out: AUC24
Description: as §2

[4] = In vitro plasma protein binding, dog; type: in vitro ADME
Description: (§1) CX-8998 distributes readily to the brain in rats and to brain and cerebral spinal fluid (CSF) in dogs.

[5] = In vitro plasma protein binding, monkey; type: in vitro ADME
Description: as §1

[6] = In vitro plasma protein binding, human; type: in vitro ADME
[7] = tested on: CYP1A2, CYP3A4, CYP2C8, CYP2C9, CYP2C19, CYP2D6, CYP2B6; assay: CYP inhibition in human liver microsomes; type: in vitro ADME
[8] = tested on: T1, CYP1A2, CYP3A4, CYP2C8, CYP2C9, CYP2C19, CYP2D6; assay: CYP inhibition in human liver microsomes; type: in vitro ADME; conditions: human liver microsomes
T1 construct: IC50, CYP1A2, CYP3A4, CYP2C8, CYP2C9, CYP2C19, CYP2D6; other: human liver microsomes

[9] = for Day 90 Free Margin for AUC24 at NOAEL for Dog 90-Day Toxicology / Day 90 Free Plasma AUC24 at NOAEL for Dog 90-Day Toxicology: Beagle; for Day 90 Free Plasma AUC24 at NOAEL for Dog 90-Day Toxicology: 30 mg/kg/day; for Day 90 Free Plasma AUC24 at NOAEL for Rat 90-Day Toxicology: 300 mg/kg/day
in vivo = conditions: rat, po
[10] = 4-week oral toxicology in Beagle dogs; conditions: dog, in vivo
[11] = Crossover bioavailability study IR vs MR1 vs MR2 capsules: PK; parameters: AUC72hr: unit not given beside the values; conditions: for AUC72hr Ratio / Cmax Ratio: metabolite to CX-8998; for AUC72hr / Cmax / Tmax: plasma
[12] = M01, middle-aged and elderly men
[13] = M01, middle-aged and elderly women
[14] = dog plasma, read-out: In vitro plasma protein binding (converted)
[15] = read-out: Free fraction in dog plasma
[16] = human plasma, read-out: In vitro plasma protein binding (converted)
[17] = humans, read-out: free fraction
[18] = single 8 mg dose of MR1 CX-8998
[19] = single 8 mg dose of MR2 CX-8998
[20] = following a single 8 mg dose of MR1 CX-8998
[21] = following a single 8 mg dose of MR2 CX-8998
[22] = M02, middle-aged and elderly men
[23] = M02, middle-aged and elderly women

With `C=C(C)c1ccc(CC(=O)N[C@H](C)c2ccc(OCC(F)(F)F)cn2)cc1` [M01] the “AUCinf, middle-aged and elderly female vs male subjects” value [1] was 2% lower, the “Cmax, middle-aged and elderly female vs male subjects” value [1] was 12% lower and the “Potency relative to CX-8998” value [2] was 1.57. For the same compound, the “Css, estimated mean” value [2, 12] was 1167 nM, the “Steady-state AUC24, estimated mean” value [2, 12] was 28.008 µM·h and the “Css, estimated mean” value [2, 13] was 1146 nM. The “Steady-state AUC24, estimated mean” value [2, 13] was 27.504 µM·h, the “Css, estimated mean” value ([2]; M01, young men) was 771 nM and the “Steady-state AUC24, estimated mean” value ([2]; M01, young men) was 18.504 µM·h. For the same compound, the “Cu, ss_adj” value [2] was less than 1.2 nM, the “Cp, ss” value [2] was 771 nM and the “Cu, ss” value [2] was less than 0.8 nM. The Percent of inhibition (WAG/Rij rats) was 71%, the “Ratio of AUC24 (metabolite/CX-8998)” value (Pharmacokinetics in dogs; Dog, Male, single oral dose 0.5 mg/kg of CX-8998) was 0.21 and the AUC (Pharmacokinetics in dogs) was 1.4 µM·h. The “Ratio of AUC24 (metabolite/CX-8998)” value ([3]; Monkey, Male, single oral dose 2 mg/kg of CX-8998) was 0.24, the AUC [3] was 0.5 µM·h and the fraction unbound [4, 14] was 0.003. It also gave a fraction unbound ([4]; dogs, read-out: free fraction) of 0.003, a fraction unbound [4, 15] of 0.003 and a fraction unbound [5] of 0.004. It also gave a fraction unbound ([6]; human plasma, read-out: Human-free fraction) of less than 0.001, a fraction unbound [6, 16] of less than 0.001 and a fraction unbound [6, 17] of less than 0.001. The “Time-dependent inhibition of CYP3A4 or CYP2B6” value [7] was “insignificant”, the pIC50 [8] was less than 4.70 and the “Day 90 Free Margin for AUC24 at NOAEL for Dog 90-Day Toxicology” value ([9]; female) was greater than 16. For the same compound, the “Day 90 Free Plasma AUC24 at NOAEL for Dog 90-Day Toxicology” value ([9]; female) was less than 309 nM · hr, the “Day 90 Free Margin for AUC24 at NOAEL for Rat 90-Day Toxicology” value ([9]; female, rat) was greater than 49 and the “Day 90 Free Plasma AUC24 at NOAEL for Rat 90-Day Toxicology” value ([9]; female, rat) was less than 936 nM · hr. For the same compound, the “Day 90 Free Margin for AUC24 at NOAEL for Dog 90-Day Toxicology” value ([9]; male) was greater than 19, the “Day 90 Free Plasma AUC24 at NOAEL for Dog 90-Day Toxicology” value ([9]; male) was less than 363 nM · hr and the “Day 90 Free Margin for AUC24 at NOAEL for Rat 90-Day Toxicology” value ([9]; male, rat) was greater than 26. For the same compound, the “Day 90 Free Plasma AUC24 at NOAEL for Rat 90-Day Toxicology” value ([9]; male, rat) was less than 500 nM · hr, the AUC (in vivo; female, 5 mg/kg) was 5.02 µM·h and the AUC (in vivo; female, 15 mg/kg) was 20.3 µM·h. The AUC (in vivo; female, 100 mg/kg) was 231 µM·h, the AUC (in vivo; female, 300 mg/kg) was 234 µM·h and the AUC (in vivo; male, 5 mg/kg) was 4.33 µM·h. It also gave an AUC (in vivo; male, 15 mg/kg) of 11.3 µM·h, an AUC (in vivo; male, 100 mg/kg) of 85.9 µM·h and an AUC (in vivo; male, 300 mg/kg) of 125 µM·h. The “Safety margin (AUC24) at the NOEL over expected clinical exposure” value [10] was roughly 6 fold, the “AUC72hr Ratio” value ([11]; single 8 mg dose of IR CX-8998) was 0.92 and the “Cmax Ratio” value ([11]; single 8 mg dose of IR CX-8998) was 0.14. The “AUC72hr Ratio” value [11, 18] was 0.95, the “Cmax Ratio” value [11, 18] was 0.27 and the “AUC72hr Ratio” value [11, 19] was 0.90. The “Cmax Ratio” value [11, 19] was 0.35, the AUC72hr [11, 20] was 7118 and the Cmax [11, 20] was 121 nM. For the same compound, the Tmax [11, 20] was 26 h, the AUC72hr [11, 21] was 6395 and the Cmax [11, 21] was 113 nM. The Tmax [11, 21] was 39 h.
With `C[C@@H](NC(=O)Cc1ccc(C(C)(C)O)cc1)c1ccc(OCC(F)(F)F)cn1` [M02] the “AUCinf, middle-aged and elderly female vs male subjects” value [1] was 11% lower, the “Cmax, middle-aged and elderly female vs male subjects” value [1] was 2% higher and the “Css, estimated mean” value [2, 22] was 683 nM. For the same compound, the “Steady-state AUC24, estimated mean” value [2, 22] was 15.312 µM·h, the “Css, estimated mean” value [2, 23] was 566 nM and the “Steady-state AUC24, estimated mean” value [2, 23] was 13.584 µM·h. The “Css, estimated mean” value ([2]; M02, young men) was 343 nM, the “Steady-state AUC24, estimated mean” value ([2]; M02, young men) was 8.232 µM·h and the “Cu, ss_adj” value [2] was 10.1 nM. For the same compound, the “Cp, ss” value [2] was 343 nM, the “Cu, ss” value [2] was 48 nM and the Percent of inhibition (WAG/Rij rats) was 67%. It also gave an AUC (Pharmacokinetics in dogs) of 7.8 µM·h, an AUC [3] of 36.6 µM·h and a fraction unbound [4, 14] of 0.18. It also gave a fraction unbound ([4]; dogs, read-out: free fraction) of 0.18, a fraction unbound [4, 15] of 0.18 and a fraction unbound [5] of 0.17. The fraction unbound [6, 16] was 0.14, the fraction unbound [6, 17] was 0.14 and the “Time-dependent inhibition of CYP3A4 or CYP2B6” value [7] was “insignificant”. For the same compound, the pIC50 [8] was less than 4.70, the “Day 90 Free Margin for AUC24 at NOAEL for Rat 90-Day Toxicology” value ([9]; Female rats vs human 10 mg BID) was 129 and the “Day 90 Free Margin for Cmax at NOAEL for Rat 90-Day Toxicology” value ([9]; Male rats vs human 10 mg BID (fed)) was 117. For the same compound, the “Day 90 Free Margin for AUC24 at NOAEL for Dog 90-Day Toxicology” value ([9]; female) was 33, the “Day 90 Free Plasma AUC24 at NOAEL for Dog 90-Day Toxicology” value ([9]; female) was 37,620 nM · hr and the “Day 90 Free Plasma AUC24 at NOAEL for Rat 90-Day Toxicology” value ([9]; female, rat) was 148,190 nM · hr. For the same compound, the “Day 90 Free Margin for AUC24 at NOAEL for Dog 90-Day Toxicology” value ([9]; male) was 33, the “Day 90 Free Plasma AUC24 at NOAEL for Dog 90-Day Toxicology” value ([9]; male) was 38,340 nM · hr and the “Day 90 Free Margin for AUC24 at NOAEL for Rat 90-Day Toxicology” value ([9]; male, rat) was 65. For the same compound, the “Day 90 Free Plasma AUC24 at NOAEL for Rat 90-Day Toxicology” value ([9]; male, rat) was 74,820 nM · hr, the AUC (in vivo; female, 5 mg/kg) was 16.7 µM·h and the AUC (in vivo; female, 15 mg/kg) was 54.8 µM·h. For the same compound, the AUC (in vivo; female, 100 mg/kg) was 567 µM·h, the AUC (in vivo; female, 300 mg/kg) was 511 µM·h and the AUC (in vivo; male, 5 mg/kg) was 12 µM·h. The AUC (in vivo; male, 15 mg/kg) was 26.1 µM·h, the AUC (in vivo; male, 100 mg/kg) was 186 µM·h and the AUC (in vivo; male, 300 mg/kg) was 258 µM·h. For the same compound, the “Safety margin (AUC24) at the NOEL over expected clinical exposure” value [10] was roughly 23 fold, the Tmax ([11]; following a single 8 mg dose of IR CX-8998) was 5 h and the AUC72hr [11, 20] was 3343. The Cmax [11, 20] was 94 nM, the Tmax [11, 20] was 11 h and the AUC72hr [11, 21] was 3142. For the same compound, the Cmax [11, 21] was 73 nM and the Tmax [11, 21] was 16 h.
